Measured values: publication PMC13184981, “Discovery and Development of a Potent LIMK2 Isoform-Specific Degrader” (ACS Chemical Biology, 2026)

Legend:
[1] = Microsomal stability assay; type: in vitro ADME; details: rat liver microsomes
Description: The solubilized test compound (5 μL, final concentration 10 μM) was preincubated at 37 °C in 432 μL of 0.1 M phosphate buffer (pH 7.4) together with 50 μL of an NADPH-regenerating system containing 30 mM glucose-6-phosphate, 4 U/mL glucose-6-phosphate dehydrogenase, 10 mM NADP, and 30 mM MgCl2. After 5 min, the reaction was initiated by adding 13 μL of rat liver microsomes (Sprague–Dawley, Invitrogen; 20 mg mL^–1 protein in 0.1 M phosphate buffer) and incubated in a shaking water bath at 37 °C. The reaction was quenched at 0, 15, 30, and 60 min by adding 500 μL of ice-cold methanol. Samples were centrifuged at 5,000 × g for 5 min at 4 °C, and the supernatants were analyzed by HPLC to quantify the remaining parent compound. HPLC conditions were as follows: mobile phase composed of methanol (40–90%) and water with 0.1% formic acid (10–60%), optimized for the test compound; flow rate 1 mL/min; stationary phase Purospher STAR RP-18 column (5 μm, 125 × 4 mm) with a guard column (5 μm, 4 × 4 mm); detection wavelengths at 254 and 280 nm; injection volume 50 μL. […] Compound concentrations were determined using an external calibration curve. Data are expressed as mean ± SEM of the remaining parent compound from three independent experiments.

[2] = system: CFL1, CFL2 and DSTN phosphorylation; assay: Phospho-proteomics; type: cell-based, human; details: HuCCT1, 500 nM, 6 h
Description: Cells were lysed in SDS-lysis buffer (50 mM Tris, pH 8.5, 2% SDS, 10 mM TCEP, 40 mM chloroacetamide, protease inhibitor cocktail, phosphatase inhibitor) and boiled at 95 °C for 10 min. Proteins were precipitated using methanol-chloroform and resuspended in 8 M urea, 50 mM Tris, pH 8.5. Proteins were digested with 1:50 w/w LysC (Wako Chemicals, cleaves at the carboxylic side of lysine residue) and 1:100 w/w trypsin (Promega, Sequencing-grade) overnight at 37 °C after dilution to a final urea concentration of 1 M using 50 mM Tris pH 8.5. Digested peptides were then acidified (pH 2–3) using trifluoroacetic acid (TFA) and purified using C18 SepPak columns (Waters). […]
Tryptic peptides were analyzed on an Orbitrap Lumos coupled to an easy nLC 1200 (ThermoFisher Scientific) using a 35 cm long, 75 μm ID fused-silica column packed in-house with 1.9 μm C18 particles (Reprosil pur, Dr. Maisch), and kept at 50 °C using an integrated column oven (Sonation). […] MS2 scans for quantification were performed on the 10 most intense MS ions with an isolation window of 0.7 Th. Ions were fragmented using HCD with a normalized collision energy of 35% and analyzed in the Orbitrap with a resolution of 50,000 at m/z 200, scan range of 100–500 m/z, AGC target value of 1 × 10^5, and a maximum injection time of 86 ms. […]
MS raw data were analyzed using MaxQuant (2.4.2.0). […]

In the case of `Cc1c(OCc2cn(CCCCC(=O)Nc3ncc(-c4cc(C(F)F)nn4-c4c(Cl)cccc4Cl)s3)nn2)cccc1N1CCC(=O)NC1=O` [22b], the “metabolic stability (in words)” value [1] is reported as “favorable metabolic stability”, the “parent PROTAC remaining” value ([1]; 60 min, 10 μM, HPLC) is reported as 85% and the “phosphorylation of CFL1, CFL2 and DSTN” value [2] is reported as “no significant change in phosphorylation”.
